# Data: patent US9725436B2, “Cytochrome P450 inhibitors and their method of use” (CORTENDO AB (PUBL), priority 2013, dated 2017)
# Columns and labels:
# recombinant CYP-11 = recombinant CYP-11 (Homo sapiens (Human), UniProt P15538); assay: Cyp11 assay protocol (cortisol formation from 11-deoxycortisol, LC/MS); assay type: cell-based; settings: AD293 cells over-expressing recombinant CYP-11
# Description: (§1) Cyp11 assay protocol: AD293 cells that stably over-express recombinant CYP-11 were seeded in 96 well plates coated with poly D-lysine (15,000 cell per well) and incubated at 37° C. for 24 hours in Dulbecco's Modified Eagle Medium (DMEM) with Fetal Bovine Serum (FBS) that is stripped of hormones by charcoal treatment. The media is then removed, the cells are washed once with Phosphate buffer saline solution, and 50 μL Dulbecco's Modified Eagle Medium (DMEM) with Fetal Bovine Serum (FBS) that is stripped of hormones by charcoal treatment is added. Compounds of the disclosure are then added to the wells in eight concentration spanning 10 μM to 4.5 nM, and the plates are incubated for an additional 60 minutes at 37° C. 11-deoxycortisol is then added (2.0 μM) and the plates are incubated for an additional 12 hours at 37° C. After incubation, 50 uL of the supernatant (medium) is transferred into a fresh plate and 150 uL of an acetonitrile solution containing 200 ng/ml of Telmisartan is added.
# recombinant CYP-17 = recombinant CYP-17 (Homo sapiens (Human), UniProt P05093); assay: Cyp17 assay protocol (3H-acetic acid release from [21-3H] 17α-hydroxyl-Pregnenolone); assay type: cell-based; settings: AD293 cells over-expressing recombinant CYP-17
# Chain of recombinant CYP-17 (P05093 whole entry, species assumed): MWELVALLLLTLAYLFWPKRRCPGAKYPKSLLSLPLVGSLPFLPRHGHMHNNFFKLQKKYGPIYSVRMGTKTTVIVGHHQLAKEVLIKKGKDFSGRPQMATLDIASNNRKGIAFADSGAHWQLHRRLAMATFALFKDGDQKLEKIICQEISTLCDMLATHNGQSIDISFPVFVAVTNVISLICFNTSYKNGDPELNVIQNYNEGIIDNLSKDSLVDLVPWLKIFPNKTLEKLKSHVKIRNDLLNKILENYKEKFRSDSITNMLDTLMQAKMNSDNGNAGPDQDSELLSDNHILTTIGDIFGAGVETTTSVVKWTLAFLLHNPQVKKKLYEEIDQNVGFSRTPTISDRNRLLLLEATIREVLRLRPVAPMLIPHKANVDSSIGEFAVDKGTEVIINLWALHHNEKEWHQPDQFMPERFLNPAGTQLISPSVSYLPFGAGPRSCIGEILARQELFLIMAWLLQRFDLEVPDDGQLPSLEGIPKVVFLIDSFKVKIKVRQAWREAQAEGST
# Description: Cyp17 assay protocol: AD293 cells that stably over-express recombinant CYP-17 were seeded in 96 well plates coated with poly D-lysine (15,000 cell per well) and incubated at 37° C. for 24 hours in Dulbecco's Modified Eagle Medium (DMEM) with Fetal Bovine Serum (FBS) that is stripped of hormones by charcoal treatment. The media is then removed, the cells are washed once with Phosphate buffer saline solution, and 50 μL Dulbecco's Modified Eagle Medium (DMEM) with Fetal Bovine Serum (FBS) that is stripped of hormones by charcoal treatment is added. Compounds of the disclosure are then added to the wells in eight concentration spanning 10 μM to 4.5 nM, and the plates are incubated for an additional 60 minutes at 37° C. [21-^3H] 17α-hydroxyl-Pregnenolone is then added (50 nCi per well, 31.25 nM) and the plates are incubated for an additional 4 hours at 37° C. The media is then collected, 200 μL of chloroform is added, and the mixture is shaken for 1 hour. The aqueous layer is then separated and analyzed for the presence of ^3H-acetic acid using a Perkin Elmer Topcount NXT to determine IC50s of the compounds of the disclosure.
# recombinant CYP-21 = recombinant CYP-21 (Homo sapiens (Human), UniProt P08686); assay: Cyp21 assay protocol (11-deoxycortisol formation from 17α-OH Progesterone, LC/MS); assay type: cell-based; settings: AD293 cells over-expressing recombinant CYP-21
# Chain of recombinant CYP-21 (P08686 whole entry, species assumed): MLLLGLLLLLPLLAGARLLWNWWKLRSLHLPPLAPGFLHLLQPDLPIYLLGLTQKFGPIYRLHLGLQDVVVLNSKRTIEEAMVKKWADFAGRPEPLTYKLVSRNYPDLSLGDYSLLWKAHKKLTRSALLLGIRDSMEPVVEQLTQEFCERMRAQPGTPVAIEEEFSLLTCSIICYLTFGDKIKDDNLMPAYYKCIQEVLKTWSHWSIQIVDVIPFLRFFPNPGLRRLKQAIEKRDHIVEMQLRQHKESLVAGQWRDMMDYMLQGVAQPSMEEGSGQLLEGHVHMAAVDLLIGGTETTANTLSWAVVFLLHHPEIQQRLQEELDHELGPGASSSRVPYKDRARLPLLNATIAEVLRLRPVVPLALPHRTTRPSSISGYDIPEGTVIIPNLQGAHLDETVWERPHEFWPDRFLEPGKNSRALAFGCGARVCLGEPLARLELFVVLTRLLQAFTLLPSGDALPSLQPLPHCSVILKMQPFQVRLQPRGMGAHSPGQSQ
# Description: as §1, with “Cyp21” for “Cyp11”, “CYP-21” for “CYP-11”, “(10,000” for “(15,000”, “17α-OH Progesterone” for “11-deoxycortisol”, “(1.0” for “(2.0”, “45 minutes” for “12 hours”
# [1] = Pharmacokinetic study in the guinea pig, 10 mg/kg oral dosing; assay type: in vivo; parameters: DNAUC(0-inf): unit not given beside the values; settings: for DNAUC(0-inf): dose-normalised AUC; for Cmax / AUC / MRT / AUC(0-inf) / half-life: in vivo; for AUC: read-out: AUC0_last; for MRT: read-out: MRT0_last
# Description: Pharmacokinetic studies in the guinea pig were run using 1 mg/kg IV dosing (20% DMA, 40% TEG, 40% water) and 10 mg/kg oral dosing (2% Tween-80, 98% HPMC (1% water)).
# Chain of recombinant CYP-11 (P15538 25-503): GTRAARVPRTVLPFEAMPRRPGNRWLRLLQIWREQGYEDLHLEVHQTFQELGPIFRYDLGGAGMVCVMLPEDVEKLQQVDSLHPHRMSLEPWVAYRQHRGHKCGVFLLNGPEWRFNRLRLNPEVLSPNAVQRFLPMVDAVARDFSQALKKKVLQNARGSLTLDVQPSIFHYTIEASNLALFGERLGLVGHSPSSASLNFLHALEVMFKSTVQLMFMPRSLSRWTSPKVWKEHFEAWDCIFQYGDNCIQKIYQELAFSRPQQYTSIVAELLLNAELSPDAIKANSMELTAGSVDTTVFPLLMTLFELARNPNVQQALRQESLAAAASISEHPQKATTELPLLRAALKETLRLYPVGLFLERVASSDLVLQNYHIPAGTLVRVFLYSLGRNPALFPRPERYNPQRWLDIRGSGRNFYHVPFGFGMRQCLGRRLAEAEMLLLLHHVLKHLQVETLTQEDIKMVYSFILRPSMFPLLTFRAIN
SMILES,IC50 (recombinant CYP-11) [nM],IC50 (recombinant CYP-17) [nM],IC50 (recombinant CYP-21) [nM],also measured
O=S(=O)(C1CC1)N1CCN(c2ccc(/C=C/c3cc(F)cc(-c4ccncc4)c3)cc2)CC1 [drawing 724],,,,DNAUC(0-inf) [1]: 160; Cmax [1]: 172 ng/mL; AUC [1]: 1600 ng·h/mL; MRT [1]: 7 h
CC(=O)N1CCN(c2ccc(/C=C/c3cc(F)cc(-c4ccncc4)c3)cc2)CC1,,,,AUCExtra [1]: 43.93%; DNAUC(0-inf) [1]: 823.1; AUC(0-inf) [1]: 14900 ng·h/mL; Cmax [1]: 1020 ng/mL; half-life [1]: 6 h; AUC [1]: 8230 ng·h/mL; MRT [1]: 5.56 h
O=C(C1CC1)N1CCN(c2ccc(/C=C/c3cc(Cl)cc(Cn4ccnc4)c3)cc2)CC1 [Example 22],19,48,1400,
CC(=O)N1CCN(c2ccc(/C=C/c3cc(Cl)cc(-c4cccnc4)c3)cc2)CC1 [Example 32],,620,,
CC(=O)N1CCN(c2ccc(/C=C/c3cc(Cl)cc(C(=C(C)C)c4cccnc4)c3)cc2)CC1 [Example 30],1800,210,2400,
CC(=O)N1CCN(c2ccc(/C=C/c3cc(Cl)cc(-c4ccncc4)c3)cc2)CC1 [Example 31],,5,1100,
Fc1cc(/C=C/c2ccc(-c3ccncc3)cc2)cc(-c2ccncc2)c1 [Example 25],3700,11,850,
Clc1cc(/C=C/c2ccc(N3CCN(CC4CC4)CC3)cc2)cc(Cn2ccnc2)c1 [Example 19],11,17,585,
CCOC(=O)CNC(=O)N1CCN(c2ccc(CCc3cc(F)cc(-c4ccncc4)c3)cc2)CC1 [Example 43],160,7,,
O=S(=O)(c1cccnc1)N1CCN(c2ccc(/C=C/c3cc(Cl)cc(Cn4ccnc4)c3)cc2)CC1 [Example 21],4,17,1380,
O=S(=O)(N1CCN(c2ccc(/C=C/c3cc(F)cc(-c4ccncc4)c3)cc2)CC1)C(F)(F)F [drawing 726],,,,AUCExtra [1]: 25.87%; DNAUC(0-inf) [1]: 164.6; AUC(0-inf) [1]: 2450 ng·h/mL; Cmax [1]: 271 ng/mL; half-life [1]: 5.3 h; AUC [1]: 1650 ng·h/mL; MRT [1]: 5.01 h
CCOC(=O)CNC(=O)N1CCN(c2ccc(/C=C/c3cc(Cl)cc(Cn4ccnc4)c3)cc2)CC1 [Example 20],27,41,360,
CCS(=O)(=O)N1CCN(c2ccc(/C=C/c3cc(F)cc(-c4ccncc4)c3)cc2)CC1 [drawing 725],,,,AUCExtra [1]: 18.25%; DNAUC(0-inf) [1]: 330.1; AUC(0-inf) [1]: 4190 ng·h/mL; Cmax [1]: 540 ng/mL; half-life [1]: 4.8 h; AUC [1]: 3300 ng·h/mL; MRT [1]: 5.54 h
CC(C)S(=O)(=O)N1CCN(c2ccc(/C=C/c3cc(F)cc(-c4ccncc4)c3)cc2)CC1 [Example 40],,1,190,
N#Cc1cccc(C(=O)N2CCN(c3ccc(/C=C/c4cc(Cl)cc(Cn5ccnc5)c4)cc3)CC2)c1 [Example 18],4,22,,
O=S(=O)(c1cccnc1)N1CCN(c2ccc(/C=C/c3cc(F)cc(-c4ccncc4)c3)cc2)CC1 [Example 33],220,7,3300,
CC(C)=C(c1cccnc1)c1cc(Cl)cc(/C=C/c2ccc(-c3ccncc3)cc2)c1 [Example 46],,300,,
Fc1cc(/C=C/c2ccc(Br)cc2)cc(-c2ccncc2)c1 [Example 24],,42,2600,
O=S(=O)(C1CC1)N1CCN(c2ccc(/C=C/c3cc(F)cc(-c4ccncc4)c3)cc2)CC1 [Example 35],140,5,393,
Fc1cc(CCc2ccc(-c3ccncc3)cc2)cc(-c2ccncc2)c1 [Example 37],,190,490,
CC(=O)N1CCN(c2ccc(/C=C/c3cc(Cl)cc(COc4cccnc4)c3)cc2)CC1 [Example 26],140,135,,
CC(=O)N1CCN(c2ccc(/C=C/c3cc(F)cc(-c4cccnc4)c3)cc2)CC1 [Example 27],,610,,
CC(=O)N1CCN(c2ccc(/C=C/c3cc(Cl)cc(Cc4cccnc4)c3)cc2)CC1 [Example 28],180,35,,
N#Cc1cccc(CN2CCN(c3ccc(/C=C/c4cc(Cl)cc(Cn5ccnc5)c4)cc3)CC2)c1 [Example 23],7,25,285,
CC(=O)N1CCN(c2ccc(/C=C/c3cc(Cl)cc(C(O)(c4cccnc4)C(C)C)c3)cc2)CC1 (stereo not drawn) [Example 29],370,240,3300,

# Second part, led by results:
IC50 (recombinant CYP-11) [nM],IC50 (recombinant CYP-17) [nM],IC50 (recombinant CYP-21) [nM],SMILES,also measured
250,3.5,73,CCOC(=O)CNC(=O)NC1CCN(c2ccc(/C=C/c3cc(Cl)cc(Cn4ccnc4)c3)cc2)CC1 [Example 47],
200,5,520,CCS(=O)(=O)N1CCN(c2ccc(/C=C/c3cc(F)cc(-c4ccncc4)c3)cc2)CC1 [Example 36],
,3,1200,O=S(=O)(C1CC1)N1CCN(c2ccc(CCc3cc(F)cc(-c4ccncc4)c3)cc2)CC1 [Example 41],
183,16.5,2800,O=S(=O)(N1CCN(c2ccc(CCc3cc(F)cc(-c4ccncc4)c3)cc2)CC1)C(F)(F)F [Example 45],
1500,5,316,O=S(=O)(N1CCN(c2ccc(/C=C/c3cc(F)cc(-c4ccncc4)c3)cc2)CC1)C(F)(F)F [Example 39],
1300,8,1010,CCOC(=O)CNC(=O)N1CCN(c2ccc(/C=C/c3cc(F)cc(-c4ccncc4)c3)cc2)CC1 [Example 34],
,4,1000,CC(C)S(=O)(=O)N1CCN(c2ccc(CCc3cc(F)cc(-c4ccncc4)c3)cc2)CC1 [Example 42],
54,5,770,Fc1cc(/C=C/c2ccc(N3CCN(CC4CC4)CC3)cc2)cc(-c2ccncc2)c1 [Example 38],
330,2,1600,CCS(=O)(=O)N1CCN(c2ccc(CCc3cc(F)cc(-c4ccncc4)c3)cc2)CC1 [Example 44],
